Structures are written as SMILES.

The assay has as its target T1, BRD4 bromodomains (Homo sapiens, UniProt O60885).
T1 construct: fused on or other part: T7 phage capsid protein (phage-display fusion; the phage DNA is read out by qPCR)
In words: BROMOscan bromodomain competition binding assay (DiscoveRx). As to conditions: Kd from 11 compound concentrations ranging from 0 to 10 μM, read-out: BROMOscan Relative Activity. In outline:
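Compounds in 0.1% DMSO/0.9% MEG competed with a solid-phase acetylated peptide for T7 phage-fused BRD4 bromodomains, with the retained bromodomain measured by qPCR.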
Turning to `Cc1noc(C)c1-c1ccc2nc(NCc3ccc(Cl)cc3)nc(NCc3cccc(Cl)c3)c2c1` [Example 167, N4-(3-chlorobenzyl)-N2-(4-chlorobenzyl)-6-(3,5-dimethylisoxazol-4-yl)quinazoline-2,4-diamine], the Kd is more than 5000 nM.

As to `Cc1noc(C)c1-c1ccc2nc(N3CCN(S(C)(=O)=O)CC3)nc(NCc3cncc(Cl)c3)c2c1` [Example 152, N-((5-chloropyridin-3-yl)methyl)-6-(3,5-dimethylisoxazol-4-yl)-2-(4-(methylsulfonyl)piperazin-1-yl)quinazolin-4-amine], the Kd is less than 500 nM.

For `Cc1nc(NCc2cccc(Cl)c2)c2cc(-c3c(C)noc3C)ccc2n1` [Example 9, N-(3-chlorobenzyl)-6-(3,5-dimethylisoxazol-4-yl)-2-methylquinazolin-4-amine], the Kd is less than 500 nM.

With `Cc1noc(C)c1-c1ccc2nc(C(=O)NCc3ccncc3)nc(NCc3cccc(Cl)c3)c2c1` [Example 171, 4-((3-chlorobenzyl)amino)-6-(3,5-dimethylisoxazol-4-yl)-N-(pyridin-4-ylmethyl)quinazoline-2-carboxamide], the Kd is less than 500 nM.

For the compound `Cc1noc(C)c1-c1ccc2nc(C3=CCNCC3)nc(NCc3cccc(Cl)c3)c2c1` [Example 31, N-(3-chlorobenzyl)-6-(3,5-dimethylisoxazol-4-yl)-2-(1,2,3,6-tetrahydropyridin-4-yl)quinazolin-4-amine], the Kd is less than 500 nM.

Regarding `Cc1noc(C)c1-c1ccc2nc(C(=O)NC3CS(=O)(=O)C3)nc(N3CCOC[C@@H]3c3ccccc3)c2c1` [Example 315, (S)-6-(3,5-dimethylisoxazol-4-yl)-N-(1,1-dioxidothietan-3-yl)-4-(3-phenylmorpholino)quinazoline-2-carboxamide], the Kd was less than 500 nM.

As to `Cc1noc(C)c1-c1ccc2nc(-c3cnn(CC(N)=O)c3)nc(NCc3cncc(Cl)c3)c2c1` [Example 142, 2-(4-(4-(((5-chloropyridin-3-yl)methyl)amino)-6-(3,5-dimethylisoxazol-4-yl)quinazolin-2-yl)-1H-pyrazol-1-yl)acetamide], the Kd is less than 500 nM.

In the case of `Cc1noc(C)c1-c1ccc2nc(N3CCN(C)CC3)nc(N3CCOC[C@@H]3c3ccccc3)c2c1` [Example 293, (S)-4-(6-(3,5-dimethylisoxazol-4-yl)-2-(4-methylpiperazin-1-yl)quinazolin-4-yl)-3-phenylmorpholine], the Kd is less than 500 nM.

Regarding `Cc1noc(C)c1-c1ccc2nc(C(=O)NC3CS(=O)(=O)C3)nc(NCc3cccc(Cl)c3)c2c1` [Example 271, 4-((3-chlorobenzyl)amino)-6-(3,5-dimethylisoxazol-4-yl)-N-(1,1-dioxidothietan-3-yl)quinazoline-2-carboxamide], the Kd is less than 500 nM.

For the compound `Cc1noc(C)c1-c1ccc2nc(N3CCN(CCN(C)C)CC3)nc(O)c2c1` [Example 68, 2-(4-(2-(dimethylamino)ethyl)piperazin-1-yl)-6-(3,5-dimethylisoxazol-4-yl)quinazolin-4-ol], the Kd is 500 to 5000 nM.

As for `Cc1noc(C)c1-c1ccc2nc(N3CCC4(CC3)CC(O)C4)nc(N3CCOC[C@@H]3c3ccccc3)c2c1` [Example 313, (S)-7-(6-(3,5-dimethylisoxazol-4-yl)-4-(3-phenylmorpholino)quinazolin-2-yl)-7-azaspiro 13.51 nonan-2-ol], the Kd was less than 500 nM.

For the compound `Cc1noc(C)c1-c1ccc2nc(NCc3cccc(Cl)c3)cc(N3CCN(CCN(C)C)CC3)c2c1` [Example 27, N-(3-chlorobenzyl)-4-(4-(2-(dimethylamino)ethyl)piperazin-1-yl)-6-(3,5-dimethylisoxazol-4-yl)quinolin-2-amine], the Kd was 500 to 5000 nM.

On to `Cc1noc(C)c1-c1ccc2nc(N3CCN(CC(C)O)CC3)nc(NCc3cccc(Cl)c3)c2c1` (centres unmarked) [Example 45, 1-(4-(4-((3-chlorobenzyl)amino)-6-(3,5-dimethylisoxazol-4-yl)quinazolin-2-yl)piperazin-1-yl)propan-2-ol], for which the Kd is less than 500 nM.

For `Cc1noc(C)c1-c1ccc2nc(Oc3ccc(Cl)cc3)nc(NCc3cccc(Cl)c3)c2c1` [Example 169, N-(3-chlorobenzyl)-2-(4-chlorophenoxy)-6-(3,5-dimethylisoxazol-4-yl)quinazolin-4-amine], the Kd was more than 5000 nM.

`Cc1noc(C)c1-c1ccc2nc(-c3cnn(C(C)(C)CO)c3)nc(NCc3cncc(Cl)c3)c2c1` [Example 138, 2-(4-(4-(((5-chloropyridin-3-yl)methyl)amino)-6-(3,5-dimethylisoxazol-4-yl)quinazolin-2-yl)-1H-pyrazol-1-yl)-2-methylpropan-1-ol]: the Kd is less than 500 nM.

As to `CN(C)C(=O)Cn1cc(-c2nc(NCc3cncc(Cl)c3)c3cc(-c4ccc(=O)n(C)c4)ccc3n2)cn1` [Example 146, 2-(4-(4-(((5-chloropyridin-3-yl)methyl)amino)-6-(1-methyl-6-oxo-1,6-dihydropyridin-3-yl)quinazolin-2-yl)-1H-pyrazol-1-yl)-N,N-dimethylacetamide], the Kd is less than 500 nM.

Take `Cc1noc(C)c1-c1ccc2nc(C(=O)NC3CN(C)C3)nc(NCc3cncc(Cl)c3)c2c1` [Example 237, 4-(((5-chloropyridin-3-yl)methyl)amino)-6-(3,5-dimethylisoxazol-4-yl)-N-(1-methylazetidin-3-yl)quinazoline-2-carboxamide]: the Kd is less than 500 nM.

For `Cc1noc(C)c1-c1ccc2nc(C(=O)NCC3CN(C)C3)nc(N3CCOC[C@@H]3c3ccccc3)c2c1` [Example 283, (S)-6-(3,5-dimethylisoxazol-4-yl)-N-((1-methylazetidin-3-yl)methyl)-4-(3-phenylmorpholino)quinazoline-2-carboxamide], the Kd is less than 500 nM.

Consider `Cc1noc(C)c1-c1ccc2nc(N3CCCC(CO)C3)nc(NCc3cccc(Cl)c3)c2c1` (centres unmarked) [Example 24, (1-(4-((3-chlorobenzyl)amino)-6-(3,5-dimethylisoxazol-4-yl)quinazolin-2-yl)piperidin-3-yl)methanol], for which the Kd was in the range of 500 to 5000 nM.

For the compound `CNC(=O)Cn1cc(-c2nc(NCc3cncc(Cl)c3)c3cc(-c4c(C)noc4C)ccc3n2)cn1` [Example 141, 2-(4-(4-(((5-chloropyridin-3-yl)methyl)amino)-6-(3,5-dimethylisoxazol-4-yl)quinazolin-2-yl)-1H-pyrazol-1-yl)-N-methylacetamide], the Kd is less than 500 nM.

On to `Cc1nn(C)c(C)c1CNC(=O)c1nc(NCc2cccc(Cl)c2)c2cc(-c3c(C)noc3C)ccc2n1` [Example 194, 4-((3-chlorobenzyl)amino)-6-(3,5-dimethylisoxazol-4-yl)-N-((1,3,5-trimethyl-1H-pyrazol-4-yl)methyl)quinazoline-2-carboxamide], for which the Kd was less than 500 nM.

`Cc1ncc(CNC(=O)c2nc(NCc3cccc(Cl)c3)c3cc(-c4c(C)noc4C)ccc3n2)s1` [Example 212, 4-((3-chlorobenzyl)amino)-6-(3,5-dimethylisoxazol-4-yl)-N-((2-methylthiazol-5-yl)methyl)quinazoline-2-carboxamide]: the Kd was less than 500 nM.

`Cc1noc(C)c1-c1ccc2nc(C(=O)N3CCc4[nH]ncc4C3)nc(NC3(c4cccc(Cl)c4)CC3)c2c1` [Example 286, (4-((1-(3-chlorophenyl)cyclopropyl)amino)-6-(3,5-dimethylisoxazol-4-yl)quinazolin-2-yl)(1,4,6,7-tetrahydro-5H-pyrazolo[4,3-c]pyridin-5-yl)methanone]: the Kd is less than 500 nM.

Values taken from patent US11028079B2 (ConverGene LLC, priority 2015, dated 2021).
